# In patent US9388170B2, “Substituted aminoquinazolines useful as kinases inhibitors” (TELIGENE LTD., priority 2012, dated 2016):
# Where two headings read alike, the source gives them in different places.
# Key:
# [1] = In vivo NCI-H1975 xenograft study body weight change; conditions: nude mice, 15 mg/kg
# Experimental: (§1) A representative protocol for the in vivo experiment is as followed to establish the subcutaneous NCI-H1975 cell line xenograft model in nude mice and to evaluate the in vivo therapeutic efficacy of the compounds: H1975 cells were cultured in RPMI1640 containing 10% fetal bovine serum, 1% L-glutamine, 100 U/mL penicillinG and 100 μg/mL streptomycin. Cells in logarithmic growth phase were harvested and resuspended in 1×PBS for implantation. Tumor xenografts were established by injecting tumor cells 5×10^6/mouse into the right flank by sc under sterile conditions. When the tumors reached an appropriate size (100-200 mm^3), mice were randomized into 6 mice per group (8 mice in control group). The tumors were measured using a caliper in two dimensions, length (a), and width (b). Tumor volumes were estimated from measurements of two diameters of the individual tumors as follows: Tumor Volume(mm^3)=(a×b^2)/2 The tumor sizes and animal body weights were measured twice a week. Mice were observed daily for clinical signs. Blood samples were collected 2 hours after last treatment, plasma samples were prepared and stored at -80° C. Tumor tissues were separated, weighed, taken picture, and subsequently stored at -80° C. for further analysis. All animal experiments were performed in accordance with the Guidelines for Use and Care of Animals of the University of Traditional Medicine. The parameters for in vivo efficacy evaluation were calculated according to the guidance of SFDA. Percent T/C (%) was calculated with the following formula: T/C (%)=(TRTV/CRTV)×100%, where TRTV and CRTV stand for relative tumor volume in treatment group and vehicle control group, respectively. Relative tumor volume (RTV) was calculated using the formula: RTV=Vt/V0, where Vt represents volume on testing day, and V0 represents volume on first day of treatment.
# [2] = In vivo NCI-H1975 study AST and ALT change; conditions: NCI-H1975 xenograft, nude mice, 15 mg/kg; in U/L (unit assumed)
# Experimental: as §1
# [3] = In vivo A431 xenograft body weight change; conditions: nude mice, 10 mg/kg
# Experimental: (§2) A representative protocol for the in vivo experiment to establish the subcutaneous A431 cell line xenograft model in nude mice and to evaluate the in vivo therapeutic efficacy of the compounds is similar to the protocol described for subcutaneous NCI—H1975 cell line xenograft model in nude mice. […] Tumor growth inhibition (TGI, %) was calculated.
# EGFR (T790M/L858R) = EGFR (T790M/L858R) (Homo sapiens (Human), UniProt P00533, L858R/T790M); assay: In vitro EGFR (T790M/L858R) kinase activity inhibition assay (Kinase-Glo Plus luminescence); type: biochemical; conditions: 10 μM ATP, read-out: potency (IC50), enzyme assay (EGFR/T790M)
# EGFR (T790M/L858R), sequence (P00533 25-1210 T790M/L858R): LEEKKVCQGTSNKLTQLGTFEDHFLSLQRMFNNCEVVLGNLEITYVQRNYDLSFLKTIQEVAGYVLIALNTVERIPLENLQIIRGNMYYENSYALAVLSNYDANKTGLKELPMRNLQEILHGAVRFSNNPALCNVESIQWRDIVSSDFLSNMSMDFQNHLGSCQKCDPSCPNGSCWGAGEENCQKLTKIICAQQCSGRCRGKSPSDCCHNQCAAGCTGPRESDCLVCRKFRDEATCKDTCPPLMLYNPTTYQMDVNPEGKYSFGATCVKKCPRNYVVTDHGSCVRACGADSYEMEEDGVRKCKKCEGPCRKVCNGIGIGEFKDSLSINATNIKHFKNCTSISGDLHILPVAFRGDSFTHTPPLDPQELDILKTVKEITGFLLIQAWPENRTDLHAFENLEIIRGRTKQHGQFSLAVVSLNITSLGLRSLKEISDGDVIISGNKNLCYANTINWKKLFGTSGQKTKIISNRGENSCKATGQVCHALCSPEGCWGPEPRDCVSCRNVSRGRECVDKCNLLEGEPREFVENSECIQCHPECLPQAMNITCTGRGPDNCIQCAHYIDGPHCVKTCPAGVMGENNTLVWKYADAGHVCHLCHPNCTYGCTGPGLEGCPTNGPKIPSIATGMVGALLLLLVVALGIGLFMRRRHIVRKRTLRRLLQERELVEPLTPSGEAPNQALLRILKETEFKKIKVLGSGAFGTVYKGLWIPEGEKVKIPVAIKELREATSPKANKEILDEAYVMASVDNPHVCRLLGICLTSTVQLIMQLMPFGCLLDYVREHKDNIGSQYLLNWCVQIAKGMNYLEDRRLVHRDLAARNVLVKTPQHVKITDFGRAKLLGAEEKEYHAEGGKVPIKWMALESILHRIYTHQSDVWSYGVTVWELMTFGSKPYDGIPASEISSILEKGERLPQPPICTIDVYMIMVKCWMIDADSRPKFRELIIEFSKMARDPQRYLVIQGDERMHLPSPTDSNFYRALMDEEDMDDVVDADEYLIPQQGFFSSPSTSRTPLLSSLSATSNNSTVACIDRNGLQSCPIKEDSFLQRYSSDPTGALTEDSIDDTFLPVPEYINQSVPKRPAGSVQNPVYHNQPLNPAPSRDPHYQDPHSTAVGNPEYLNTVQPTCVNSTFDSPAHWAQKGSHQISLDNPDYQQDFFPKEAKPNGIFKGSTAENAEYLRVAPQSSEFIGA
# Experimental: 2. […] It measures kinase activity by quantitating the amount of ATP remaining in solution following a kinase reaction. The luminescent signal from the assay is correlated with the amount of ATP present and is inversely correlated with the amount of kinase activity. […] Luminescence signal was measured using a BioTek Synergy 2 microplate reader.
# 3. […] The luminescence data were analyzed using the computer software, Graphpad Prism. […] The IC50 value was determined by the concentration causing a half-maximal percent activity.
# A431 = assay: Cell proliferation assay (MTT), A431; type: cell-based; conditions: Homo sapiens, A-431, A431 cells, 72 hours
# Experimental: (§3) A Representative Number of Compounds were Assayed Against Different Cancer Cell Lines Such as A431, BT474, NCI—H1975, SK—OV-3, SK—Br-3 and A549 Using the Cell Proliferation Assays:
# (§4) 1. 5×10^3 cells per well in 100 μl of medium were seeded in 96-well plate, here the medium contained 5% FBS
# (§5) 2. 24 hours later, 100 μl fresh medium was added with various concentrations of compounds into each well, while the medium here was free of FBS.
# (§6) 3. After the cells were treated with compounds for 72 hours, 20 μl MTT (5 mg/ml) was added into each well, and then the assay plate was incubated at 37° C. for 4 more hours.
# (§7) 4. The assay plate was centrifuged at 800 g for 10 min. The medium was aspirated, 150 μl DMSO was added into each well. The plate was gently shaken for 10 min.
# (§8) 5. The absorbance at 570 nm was measured on the plate reader.
# BT474 = assay: Cell proliferation assay (MTT), BT474; type: cell-based; conditions: Homo sapiens, BT-474, BT474 cells, 72 hours
# Experimental: as §3, §4, §5, §6, §7, §8
# NCI—H1975 = assay: Cell proliferation assay (MTT), NCI-H1975; type: cell-based; conditions: Homo sapiens, NCI—H1975 cells, 72 hours, read-out: potency (IC50), NCI—H1975 cell assay
# Experimental: as §3, §4, §5, §6, §7, §8
# SK—OV-3 = assay: Cell proliferation assay (MTT), SK-OV-3; type: cell-based; conditions: Homo sapiens, SK—OV-3 cells, 72 hours, read-out: potency (IC50), SK—OV-3 cell assay
# Experimental: as §3, §4, §5, §6, §7, §8
# SK—Br-3 = assay: Cell proliferation assay (MTT), SK-Br-3; type: cell-based; conditions: Homo sapiens, SK—Br-3 cells, 72 hours, read-out: potency (IC50), SK—Br-3 cell assay
# Experimental: as §3, §4, §5, §6, §7, §8
# A549 = assay: Cell proliferation assay (MTT), A549; type: cell-based; conditions: Homo sapiens, A549 cells, 72 hours, read-out: potency (IC50), A549 cell assay
# Experimental: as §3, §4, §5, §6, §7, §8
# [4] = system: NCI—H1975 cell line xenograft; assay: In vivo subcutaneous NCI-H1975 xenograft efficacy; conditions: nude mice
# Experimental: A representative protocol for the in vivo experiment is as followed to establish the subcutaneous NCI—H1975 cell line xenograft model in nude mice and to evaluate the in vivo therapeutic efficacy of the compounds: H1975 cells were cultured in RPMI1640 containing 10% fetal bovine serum, 1% L-glutamine, 100 U/mL penicillinG and 100 μg/mL streptomycin. Cells in logarithmic growth phase were harvested and resuspended in 1×PBS for implantation.
# Tumor xenografts were established by injecting tumor cells 5×10^6/mouse into the right flank by sc under sterile conditions. When the tumors reached an appropriate size (100-200 mm^3), mice were randomized into 6 mice per group (8 mice in control group). The tumors were measured using a caliper in two dimensions, length (a), and width (b). […]
# The tumor sizes and animal body weights were measured twice a week. […] The parameters for in vivo efficacy evaluation were calculated according to the guidance of SFDA. Percent T/C (%) was calculated with the following formula: T/C (%)=(TRTV/CRTV)×100%, where TRTV and CRTV stand for relative tumor volume in treatment group and vehicle control group, respectively. Relative tumor volume (RTV) was calculated using the formula: RTV=Vt/V0, where Vt represents volume on testing day, and V0 represents volume on first day of treatment. […]
# [5] = Solubility measurement (HPLC); type: physicochemical; conditions: thermodynamic from solid
# Experimental: The compound was diluted with acetonitrile to 100 mL.
# The solution was shook for 2 minutes and left for 30 minutes at 25° C. After standing for 30 minutes, precipitate was formed in the bottom of the EP. The solutions was filtered through 0.2 um membrane filter, and then diluted by 50 times with water.
# The standard and sample solutions were injected into the HPLC on a Shim-Pack CLC-ODS C18 column (150 mm×6.0 mm, 5 um) with the same volume. The mobile phase consisted of acetonitrile with 2% […] −20 mM KH2PO4 buffer (pH=6.8) at a flow rate of 1 mL/minutes (40:60). The detection wavelength is at 264 nm. Calculation: solubility of sample=the concentration of standard×Area of sample×50/Area of standard.
# A431 cell line xenograft = assay: In vivo subcutaneous A431 xenograft efficacy; conditions: nude mice, 10 mg/kg by oral gavage once daily for 14 days
# Experimental: as §2
# [6] = aqueous buffer, pH 6.8 buffer solution (20 mM), 25° C., read-out: Solubility at pH 6.8
# [7] = buffer solution (pH 7.6), 25 °C, pH 7.6, aqueous buffer, read-out: Solubility at pH 7.6
IC50 (EGFR (T790M/L858R)),IC50 (A431),IC50 (BT474),IC50 (SK—OV-3),IC50 (SK—Br-3),IC50 (A549),"solubility at 30 min [5, 6]","solubility at 30 min [5, 7]",Compound,Day 7 Weight change [1],ALT [2],AST [2],"Body weight change, Day 7 [3]","Body weight change, Day 10 [3]",IC50 (NCI—H1975),efficacy in the NCI—H1975 xenograft study [4],"Tumor growth inhibition (TGI, %) (A431 cell line xenograft)"
–,–,–,–,–,–,–,–,"CN(C)C/C=C/C(=O)Nc1cc2c(Nc3ccc(F)c(Cl)c3)ncnc2cc1O[C@H]1CCOC1 [Afatinib, reference compound]",−0.9%,49.50,265.67,−2.2%,0.4%,–,–,–
< 0.1 µM,3.1 µM,0.057 µM,< 10 µM,< 10 µM,< 10 µM,150 µg/mL,25 µg/mL,"C#Cc1cccc(Nc2ncnc3cc(O[C@H]4CCOC4)c(NC(=O)/C=C/CN(C)C)cc23)c1 [Compound 13, (S,E)-4-(dimethylamino)-N-(4-((3-ethynylphenyl)amino)-7-((tetrahydrofuran-3-yl)oxy)quinazolin-6-yl)but-2-enamide]",0.1%,–,–,–,–,< 10 µM,good efficacy,–
–,–,–,< 10 µM,< 10 µM,< 10 µM,3370 µg/mL,238 µg/mL,"C#Cc1cccc(Nc2ncnc3cc(O[C@H]4CCOC4)c(NC(=O)/C=C/CN(CC)CC)cc23)c1 [Compound 20, (S,E)-4-(diethylamino)-N-(4-((3-ethynylphenyl)amino)-7-((tetrahydrofuran-3-yl)oxy)quinazolin-6-yl)but-2-enamide]",3.5%,41.67,142.33,1.5%,4.3%,< 10 µM,–,94%
